Measured values: patent US20190351031A1, “METHODS OF SELECTING SUBJECTS FOR COMBINATION CANCER THERAPY WITH A POLYMER-CONJUGATED SOLUBLE PH20” (HALOZYME, INC., priority 2018, published 2019)

How the values were obtained:
B16 melanoma model = details: oral 600 mg/kg/d (Yoshihara et al. 2005); cited from earlier work
[1] = route: IV or PO; cited from earlier work
cytidine deaminase = biological target: T1, cytidine deaminase (Homo sapiens, UniProt P32320); details: cited from earlier work
T1 construct: for the enzyme purified from human liver; host or cells: human liver

[2] = in vivo; cited from earlier work
[3] = test system: carbohydrate antigen 19-9 (CA19-9); assay: Serum CA19-9 tumor biomarker ELISA in BxPC-3 xenograft model; format: in vivo, mouse; details: day 20 of first dosing cycle
Protocol: C. Measurement of Tumor Biomarkers Biomarkers carbohydrate antigen 19-9 (CA19-9) and carcinoembryonic antigen (CEA) associated with pancreatic cancer were tested to measure therapeutic response. Animals were treated as described in part A. Serum was collected from satellite animals ([…]) from each group on day 0, 6, 13 and 20 of the first dosing cycle. Human CA19-9 was measured using a CA 19-9 ELISA kit (Catalog No. CA199T, Calbiotech, Spring Valley, Calif.) and CEA tumor antigen was measured using a CEA ELISA kit (Catalog No. CE062T, Calbiotech, Spring Valley, Calif.).

pancreatic cancer = details: gemcitabine monotherapy (Burris et al. 1997); cited from earlier work
[4] = test system: BxPC3 pancreatic cancer cell line; assay: Tumor growth inhibition in BxPC-3 human pancreatic tumor xenograft model; format: in vivo, mouse; details: gemcitabine 60, 120, 180 and 240 mg/kg once a week, day 0, 7, 14, 21
Protocol: Tumor cells from the BxPC3 pancreatic cancer cell line (American Tissue Culture Collection (ATCC) CRL-1687) were grown to approximately 80% confluency, trypsinized, collected, washed once in HBSS (Hank's balance salt solution, Mediatech Inc.). Prior to inoculation, cells were washed twice with sterile HBSS, counted using a Nexcelom Cellometer (Nexcelom Bioscience; Lawrence, Mass.) automated counting device which determines cell concentration and viability via Trypan Blue exclusion and diluted with HBSS to a concentration of 1×10^8 cells/mL on ice before inoculation into animals. Male nude mice (Athymic NCr nu/nu mice, Taconic Laboratories, Inc.) approximately 6 weeks old, were inoculated intramuscularly (IM) with 0.05 mL of cell suspension, peritibially, in the left hind leg (adjacent to the tibia periosteum). The tumors in the animals were assessed twice a week and allowed to grow to a mean tumor volume of approximately 350-400 mm^3. Actual tumor volumes were determined using VisualSonics Vevo 770 high-resolution ultrasound (VisulaSonics Inc.; Toronto, Ontario, Canada). […]
The tumor volumes of all mice were measured by capturing images using the VisualSonics ultrasound system 2 times per week. Tumor volume was calculated using a 3D-mode imaging software program (VisualSonics® Vevo 770®, v 3.0.0). The percent tumor growth inhibition (% TGI) was calculated by the following equation: […]

[5] = test system: BxPC3 pancreatic cancer cell line; assay: Median survival time (time to survival endpoint) in BxPC-3 xenograft model; format: in vivo, mouse; details: three 4-week dosing cycles; PEGPH20 4.5, nab-paclitaxel 10 mg/kg, gemcitabine 180 mg/kg
Protocol: Following the first four week dosing cycle as set forth in part A, the dosing cycle was repeated two times and time to survival endpoint was followed over time. Briefly, in each dosing cycle, animals were treated with vehicle or PEGPH20 ([…]) with or without nab-paclitaxel (10 mg/kg) intravenously twice a week for four weeks. In each cycle, groups receiving gemcitabine were administered gemcitabine (180 mg/kg) 24 hours after PEGPH20 and/or nab-paclitaxel every 7 days for three weeks of the dose cycle. Time to survival endpoint, a measure of animal survival, was defined as (a) time to tumor volume of greater than 2000 mm^3, (b) time to a greater than 20% bodyweight loss, or (c) time to animal duress or death.

T1 sequence (P32320 whole entry): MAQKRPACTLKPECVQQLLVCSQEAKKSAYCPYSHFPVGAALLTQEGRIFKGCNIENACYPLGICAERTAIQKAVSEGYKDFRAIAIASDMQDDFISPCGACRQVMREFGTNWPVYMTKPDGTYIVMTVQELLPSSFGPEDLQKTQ

## Cc1cc(=O)oc2cc(O)ccc12 [4-MU, 7-hydroxy-4-methylcoumarin]
B16 melanoma model
  reduction of metastases: 64%

## C[C@]12CCC(=O)C=C1CC[C@@H]1[C@@H]2[C@@H](O)C[C@@]2(C)[C@H]1CC[C@]2(O)C(=O)CO [Hydrocortisone]
[1]
  Equivalent Potency: 20 mg

## C[C@H]1C[C@@H]2[C@H]([C@@H](O)C[C@@]3(C)[C@H]2CC[C@]3(O)C(=O)COC(=O)CCC(=O)O)[C@@]2(C)C=CC(=O)C=C12 [Methylprednisolone sodium succinate]
[1]
  Equivalent Potency: 4 mg

## C[C@]12C=CC(=O)C=C1CC[C@@H]1[C@@H]2[C@@H](O)C[C@@]2(C)[C@H]1CC[C@]2(O)C(=O)CO [Prednisolone]
[1]
  Equivalent Potency: 5 mg

## Nc1ccn([C@H]2C[C@H](O)[C@@H](CO)O2)c(=O)n1 [deoxycytidine]
Cytidine deaminase
  rate of deamination relative to decitabine at equal concentrations: about 6 fold

## Nc1ccn([C@@H]2O[C@H](CO)[C@@H](O)C2(F)F)c(=O)n1 [gemcitabine, 2′,2′-difluorodeoxycytidine]
[2]
  half-life in plasma: approximately 10 minutes
[3]
  level of CA19-9 marker in serum: approximately similar to vehicle only control
Pancreatic cancer
  median survival: over 5 months
[4]
  tumor growth compared to vehicle only: inhibited tumor growth at all doses tested
[5]
  Median Survival Time: 38 days
